Reference: patent publication US11453690B2, “Receptor inhibitor, pharmaceutical composition comprising same, and use thereof” (BEIJING TIDE PHARMACEUTICAL CO., LTD., priority 2018, dated 2022)

Experiments:
AT1 Receptor (AT1R) = AT1 Receptor (AT1R) (Homo sapiens (Human), UniProt P30556); test: Measurement of inhibitory activity on AT1 receptor (Tag-lite HTRF, Tb-labeled AT1R cells, angiotensin receptor red agonist); assay type: binding; conditions: 1 h room temperature
Protocol: Measurement of Inhibitory Activity on AT1 Receptor ([…])/AT2 Receptor (AT2R)
Through the following steps, the inhibitory activity of the compound on AT1R/AT2R (IC50 value) was determined:
1) An appropriate amount of 1×TLB (Tag-lite Buffer) was prepared and well mixed for use.
2) The compound was diluted by 10 times with ddH2O or DMSO. The compound was then dilute to 4 times of the working concentration with 1×TLB and mixed well for use.
3) 8600 nM Tag-lite angiotensin receptor red agonist was diluted to 12 nM (4×Kd) with 1×TLB.
4) 5 ml 1×TLB was taken into a 15 ml centrifuge tube.
5) After thawing 1 tube of Tb-labeled AT1R/AT2R cells in a 37° C. water bath, the cells were quickly transferred to the 1×TLB in step 4), mixed gently, and centrifuged at 1200 g for 5 minutes at room temperature.
6) The supernatant was aspirated gently, and the cells were resuspended and mixed in 2.7 ml 1×TLB, and then placed at room temperature until use.
7) 10 μl cells were added to all test wells, and 5 μl 4× working solution of the compound from step 2) was added to the corresponding test wells. 5 μl 4× Tag-lite angiotensin receptor red agonist well diluted in step 3) was added to all test wells.
8) After leaving the reaction plate at room temperature for 1 h, data were measured and analyzed using Envision HTRF Reader, and the half inhibitory concentration (IC50) of the compound on AT1R/AT2R was calculated with the GraphPad Prism four-parameter equation.

AT2 Receptor (AT2R) = AT2 Receptor (AT2R) (Homo sapiens (Human), UniProt P50052); test: Measurement of inhibitory activity on AT2 receptor (Tag-lite HTRF, Tb-labeled AT2R cells, angiotensin receptor red agonist); assay type: binding; conditions: 1 h room temperature
AT2 Receptor (AT2R), sequence (P50052 whole entry): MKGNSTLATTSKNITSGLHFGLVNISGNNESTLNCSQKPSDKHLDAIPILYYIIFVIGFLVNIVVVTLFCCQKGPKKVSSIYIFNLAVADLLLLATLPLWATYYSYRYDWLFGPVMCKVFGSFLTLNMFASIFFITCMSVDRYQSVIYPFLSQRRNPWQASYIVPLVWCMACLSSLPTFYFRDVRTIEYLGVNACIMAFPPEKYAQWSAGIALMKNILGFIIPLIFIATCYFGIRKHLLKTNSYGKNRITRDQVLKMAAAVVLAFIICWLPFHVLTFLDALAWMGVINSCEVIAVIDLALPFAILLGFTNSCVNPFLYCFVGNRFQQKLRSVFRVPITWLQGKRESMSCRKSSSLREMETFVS

AT1 Receptor (AT1R), sequence (P30556 whole entry): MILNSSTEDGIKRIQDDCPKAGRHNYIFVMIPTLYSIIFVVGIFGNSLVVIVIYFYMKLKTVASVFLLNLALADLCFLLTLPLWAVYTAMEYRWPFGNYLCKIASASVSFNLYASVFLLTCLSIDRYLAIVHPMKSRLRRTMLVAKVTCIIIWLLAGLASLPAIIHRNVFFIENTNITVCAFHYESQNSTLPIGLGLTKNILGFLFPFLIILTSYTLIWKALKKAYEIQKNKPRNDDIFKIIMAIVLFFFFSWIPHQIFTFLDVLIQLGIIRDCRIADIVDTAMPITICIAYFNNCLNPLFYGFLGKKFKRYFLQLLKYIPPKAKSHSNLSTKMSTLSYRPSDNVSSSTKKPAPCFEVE

Compound | IC50 (AT1 Receptor (AT1R)) | IC50 (AT2 Receptor (AT2R))
O=C(O)[C@@H]1[C@H]2CC[C@@H](CN1C(=O)N1c3ccccc3C=Cc3ccccc31)N2C(=O)C(c1ccccc1)c1ccccc1 [Compound C10, (1R,2S,5S)-3-(5H-dibenzo[b,f]azepine-5-carbonyl)-8-(2,2-diphenylacetyl)-3,8-diazabicyclo [3.2.1]octane-2-carboxylic acid] | > 10000 nM | 58.8 nM
O=C(O)[C@H]1[C@@H]2CC[C@H](CN1C(=O)N(c1ccccc1)c1ccccc1)N2C(=O)N(c1ccccc1)c1ccccc1 [Compound C14, (1S,2R,5R)-3,8-bis (diphenylcarbamoyl)-3,8-diazabicyclo [3.2.1]octane-2-carboxylic acid] | > 10000 nM | 29.4 nM
CN(Cc1ccc(Cl)cc1)C(=O)N1[C@H]2CC[C@@H]1[C@@H](C(=O)O)N(C(=O)N(c1ccccc1)c1ccccc1)C2 [Compound C150, (1R,2S,5S)-8-((4-chlorobenzyl) (methyl)carbamoyl)-3-(diphenylcarbamoyl)-3,8-diazabicyclo [3.2.1]octane-2-carboxylic acid] | > 10000 nM | 9.82 nM
